Results from patent publication US10350203B2, “Multidrug infusion for pain control” (priority 2014, dated 2019).

How the values were obtained:
[1] = test system: pain due to severe spastic right hemiparesis post stroke; conditions: for pain relief: human, in vivo, iv
[2] = intrathecal, combined with opioids, up to more than 30 mg/day; cited from earlier work
[3] = test system: spinal tissue or meninges; conditions: dog, in vivo, 1 mg/kg; cited from earlier work
spinal cord = conditions: in vivo; cited from earlier work
pain = conditions: in vivo; cited from earlier work
[4] = test system: hyperalgesia and allodynia; conditions: rat, in vivo; cited from earlier work
gliosis = conditions: rat, in vivo; cited from earlier work

## NCC(CC(=O)O)c1ccc(Cl)cc1 (stereo not shown) [Baclofen]
[1]
  pain relief: no relief

## CCCCN1CCCCC1C(=O)Nc1c(C)cccc1C (stereo not shown) [bupivacaine]
[2]
  bladder dysfunction or muscle weakness: did not cause bladder dysfunction or muscle weakness

## CNC1(c2ccccc2Cl)CCCCC1=O (stereo not shown) [ketamine]
[1]
  pain relief: did not provide any relief
[1]; intravenous infusions
  tolerability: well tolerated
[3]
  histological alterations of spinal tissue or meninges: no histological alterations

## C=CCN1CC[C@]23c4c5ccc(O)c4O[C@H]2C(=O)CC[C@@]3(O)[C@H]1C5 [naloxone]
Spinal cord
  signs of spinal cord toxicity: have not demonstrated signs of spinal cord toxicity
pain
  effect on morphine analgesic effect: dramatically enhanced
  side effects: without apparent side effects
[4]
  effect on antihyperalgesia and antiallodynia effects of morphine: enhanced

## O=C1CC[C@@]2(O)[C@H]3Cc4ccc(O)c5c4[C@@]2(CCN3CC2CC2)[C@H]1O5 [naltrexone]
gliosis
  gliosis: attenuates gliosis
